From patent publication US20150148411A1, “COMPOSITIONS AND METHODS FOR DIAGNOSIS AND THERAPY OF DISORDERS RELATED TO ALTERATIONS OF MYH9” (THE ROCKEFELLER UNIVERSITY, priority 2013, published 2015)
Entries after “also recorded” stand apart in the source; their conditions may differ. Where a SMILES comes first, the peptide text is derived from it. The star is where a group is joined. Cbz = O=C(OCc1ccccc1)*

Legend:
[1] = system: H2AX, Chk1 and Chk2; assay: DDR activation markers by Western blot (γH2AX, phosphorylated Chk1, Chk2); assay type: cell-based, mouse; settings: keratinocytes treated with inhibitor
Protocol: (§1) Western Blot analysis:-Protein blotting was carried out using standard protocols. Briefly, total cell lysates were prepared using RIPA (20 mM Tris-HCl (pH 8.0), 150 mM NaCl 1 mM EDTA, 1mM EGTA, 1% Triton X-100, 0.5% Deoxycorate, 0.1% SDS, 25 mM β-glycerophosphate, 10 mM NaF, 1 mM Na3VO4) supplemented with protease inhibitors (Complete mini, Roche). Blots were blocked with 5% BSA in 1×TBS 0.1% Tween-20 (TBST) for 1 h and incubated with the primary antibody overnight at 4° C. (diluted in TBST according to the manufacturer's protocol). Primary antibodies were reactive to rabbit anti-Myh9 (1:500, HPA001644, Sigma); phosphorylated (P) Erk1/2 (1:1000, #9101, Cell Signaling), Erk1/2 (1:1000, #9102, Cell Signaling), mouse anti-p53 (1:500, #2524, Cell Signaling), mouse anti-p21(F5) (1:500; sc-6246, Santa Cruz), mouse anti-GAPDH (ab8245, 1:5000; Abcam), mouse anti-Chk2 (1:500, #611570, BD); rabbit anti-P-Chk1 (1:500, #12302P, Cell Signaling); mouse anti-Chk1 (1:1000, 2360S, Cell Signaling); rabbit anti-pSmad2 (Ser465/467) (1:1000, Cell Signaling) and mouse anti-Smad2/3 (610843, 1/500; BD). Blots were washed three times in TBST for 30 min, incubated with HRP-conjugated secondary antibodies (1:2,000; Promega) for lh at room temperature, washed 3 times in TBST for 30 min and visualized using enhanced chemiluminescence (ECL).
(§2) p53/DNA damage responses:_For measurement of DNA damage response and p53 activation primary mouse keratinocytes cells were seeded at a cell density of 100,000 cells per well in a 6-well plate and allowed to grow for 24 h at 3% O2 till importantly 100% confluency. Cells were then treated with doxorubicin ([…]) as previously reported. For experiments using blebbistatin, cells were pretreated with blebbistatin (4 μM final concentration, Sigma B0560) 30 min prior to doxorubicin treatment. The Rock inhibitor Y27632 was used at 10 μM (Sigma Y0503), LatrunculinA was used at 2 μM (Sigma L5163), LeptomycinB was used at 20 nM (Sigma #9676) and the proteasome inhibitor MG132 was used at 3 μM (Sigma M7449).

[2] = system: p53 activation; assay: p53/DNA damage response: p53 immunoblot of doxorubicin-treated primary keratinocytes; assay type: cell-based, mouse; settings: for DDR-induced p53 activation (p53 immunoblot): doxorubicin-treated mouse keratinocytes, blebbistatin 4 μM, Y27632 10 μM, latrunculin 2 μM
Protocol: as §1, §2

[3] = system: nuclear p53 accumulation; assay: Nuclear p53 retention in DDR-induced Myh9-knockdown primary keratinocytes (nuclear/cytoplasmic fractions); assay type: cell-based, mouse; settings: LeptomycinB 20 nM; for nuclear p53 accumulation/retention after DNA damage: DDR-induced Myh9-knockdown (myosin-IIa-deficient) keratinocytes, blebbistatin 4 μM
Protocol: as §1, §2

[4] = system: HNSCC tumor suppressors; assay: Pooled in vivo shRNA screen with deep sequencing of tumors; design: species or system mouse; settings: deep sequencing of 87 lesions
Text: Constructs and RNAi: shRNA constructs for the shRNA pool were obtained from The Broad Institute's Mission TRC-1 mouse library. We tested and used especially the following shRNAs targeting Brcal and Myh9:
Tumor free survival: Control and TβRII-cKO animals were transduced at E9.5 with low-titer shRNA pool targeting orthologs of putative HNSCC genes, including Brcal or Myh9. Scrambled shRNA was used as control. Transductions and knockdowns were confirmed by real-time PCR of mRNAs isolated from newborn skin epidermis or by fluorescence microscopy of a lentiviral reporter fluor, H2B-RFP or H2B-GFP. Animals were assessed biweekly for signs of tumorigenesis, and were considered positive if lesions grew to be larger than 2 mm in diameter.
Deep Sequencing: Sample preparation, preamplification and sequence processing Epidermal and tumor cells were subjected to genomic DNA isolation with the DNeasy Blood & Tissue Kit (Qiagen), and each sample was analyzed for target transduction using real-time PCR. […] Illumina reads were trimmed to the 21 nt hairpin sequence using the FASTX-Toolkit and aligned to the TRC 2.x library with BWA (v 0.6.2)44 using a maximum edit distance of 3. Hits were ranked based on (a) numbers of shRNAs that targeted the gene and scored positively in the screen, with 2 out of 5 shRNAs being considered meaningful; and (b) numbers of tumors enriched for a specific shRNA.

[5] = system: nuclear p53; assay: Nuclear p53 immunofluorescence in skin 6 hours after γ-irradiation (5Gy); assay type: in vivo, mouse; settings: H2B-RFP labeled infected cells
Text: Immunofluorescence staining The following primary antibodies were used for immunofluorescence: chicken anti-GFP (1:2000; Abcam); guinea-pig anti-K5 (1:500; E. Fuchs); rat anti-K14 (1:500; E. Fuchs); rabbit anti-K6 (1:500; E. Fuchs); rabbit anti-K18 (1:500; E. Fuchs); rat anti-CD104 β4-integrin (346-11A, 1:300; BD); rabbit anti loricin (1:500; E. Fuchs); rabbit anti-Caspase 3 (AF835, 1:1000; R&D), rabbit anti-K10 (PRB-159P, 1:1000; Covance); rabbit anti-Myh9 (HPA001644, 1:500 Sigma); rabbit anti-SMA (ab5694 1:300; Abcam) and rabit anti-p53 (NCL-p53-CMSp, 1:300; Leica). Secondary antibodies were conjugated to Alexa-488, 546, or 647 (1:1000, Life Technologies). Cells and tissues were processed as previously reported, and mounted in Vectashield HardSet mounting medium with DAPI (Life Technologies). […] For quantifications of nuclear p53, images were captured using an inverted Zeiss LSM 780 laser scanning microscope, powered by Zen software. Quantitative image analysis was performed using ImageJ software. To quantify p53 nuclear staining, the following formula was used: CTCF (corrected total cell fluorescence)=whole nucleus signal−(mean background signal (measured in the suprabasal layer)×area of the nucleus measured).

[6] = system: myosin-IIa; assay: Myosin-IIa protein by immunoblot/immunohistochemistry in transduced mice; assay type: in vivo, mouse
Protocol: Immunohistochemistry and histological analyses of mouse and human Tumors: Immunohistochemistry was performed as previously described. Briefly, 5-μm sections were cut, stained with H&E or processed for immunohistochemistry/immunofluorescence microscopy. Whole-mount staining of mammary glands was performed as described. For immunoperoxidase staining, paraffin-embedded sections were dehydrated and antigenic epitopes exposed using a 10-mM citrate buffer (pH 6.0) in a pressure cooker. Sections were incubated with the following primary antibodies at 4° C. overnight: rabbit anti-K14 (1:500; E. Fuchs) and rabbit anti-Myh9 (HPA001644, 1:500 Sigma). Primary antibody staining was visualized using peroxidase-conjugated anti-rabbit IgG followed by the DAB substrate kit for peroxidase visualization of secondary antibodies (Vector Laboratories). The following human tissue microarray comprising 48 healthy human skin samples, 30 hyperplastic skin lesions and 206 human skin SCCs as well as from 156 HNSCCs were obtained from US Biomax, Rockeville, Md.: SK244a, SK241, SK242, SK801, SK802, SK2081, SK801b and HN803a, HN811a, HN483.
Western Blot analysis:-Protein blotting was carried out using standard protocols. […]

[7] = system: keratinocytes; assay: Scratch wound assay on keratinocytes infected in vitro; assay type: cell-based, mouse; settings: versus scrambled control
[8] = system: hair follicle down-growth; assay: Hair follicle and eyelid phenotype of newborn mice transduced at E9.5; assay type: in vivo, mouse
Protocol: Materials and Methods. Mice and lentiviral transductions: TβRII foxed mice were crossed to K14-Cre and/or Rosa26YFPlox/stop/lox mice and or K14-CreER mice. Myh9 floxed mice were purchased form EMMA (EM:02572). CD1 mice were from Charles River laboratories. Large-scale production and concentration of lentivirus (6−10^9 cfu/ml) as well as ultrasound-guided lentiviral injection were performed as previously described. As controls for knock-down mice, littermates were infected with a non-targeting scrambled-shRNA, which activates the endogenous microRNA processing pathway but is not known to target any gene. Myh9fl/fl K14CreER mice were injected i.p. with 2 mg tamoxifen (20 mg/ml stock solution in corn oil) for 5 consecutive days at 6-8 weeks of age. DMBA/TPA treatment was performed as previously described. Briefly, 7-8 week old CD1 mice in second telogen were shaved and treated with 400 nmol DMBA in 100 ul aceton one week later. Thereafter, mice were treated with […] TPA in 100 ul aceton wice weekly for 20 weeks. All animals were maintained in an AAALAC-approved animal facility and procedures were performed with protocols approved by IACUC and in accordance with the National Institutes of Health.
Immunohistochemistry and histological analyses of mouse and human Tumors: Immunohistochemistry was performed as previously described. […]

## C[C@@H](N)[C@H]1CC[C@H](C(=O)Nc2ccncc2)CC1 [Y27632]
[1]
  DDR activation (γH2AX, phosphorylated Chk1 and Chk2): normal DDR activation

## COc1cccc2c1C(=O)c1c(O)c3c(c(O)c1C2=O)C[C@@](O)(C(=O)CO)C[C@@H]3O[C@H]1C[C@H](N)[C@H](O)[C@H](C)O1 [doxorubicin]
[2]; control primary keratinocytes
  p53 activation by DNA damage inducer: led to p53 activation

## Cc1ccc2c(c1)C(=O)C1(O)CCN(c3ccccc3)C1=N2 (centres unmarked) [blebbistatin]
[2]
  DDR-induced p53 activation (p53 immunoblot): phenocopied Myh9 loss of function effects on DDR-induced p53 activation
[3]
  nuclear p53 accumulation/retention after DNA damage: Nuclear p53 is not retained
[1]
  DDR activation (γH2AX, phosphorylated Chk1 and Chk2): normal DDR activation

## Brcal-shRNA#560: positive-control shRNA targeting Brca1, 5′-CCCATCATACTTTAATGTGTA-3′ (SEQ ID NO: 1)
[4]
  shRNA enrichment in lesions relative to initial pool and healthy skin: highly enriched

## latrunculin
[2]
  DDR-induced p53 activation (p53 immunoblot): did not display these effects
[1]
  DDR activation (γH2AX, phosphorylated Chk1 and Chk2): normal DDR activation

## Myh9-shRNA #507: shRNA targeting Myh9, 5′-GCGATACTACTCAGGGCTTAT-3′ (SEQ ID NO: 6)
[5]
  nuclear p53 staining in skin: do not show efficient nuclear p53 staining

## Myh9-shRNA #504: shRNA targeting Myh9, 5′-CGGTAAATTCATTCGTATCAA-3′ (SEQ ID NO: 3)
[6]; mice transduced in utero, examined at birth
  myosin-IIa protein in skin/epidermis: loss of myosin-IIa
[6]; tumors from TβRII-cKO mice
  myosin-IIa immunolabeling in SCC tumor epithelium: absent
[7]
  keratinocyte migration (wound closure): enhances keratinocyte migration
[8]
  hair follicle down-growth: impaired hair follicle down-growth

## CC(C)C[C@@H](C=O)NC(=O)[C@H](CC(C)C)NC(=O)[C@H](CC(C)C)NC(=O)OCc1ccccc1 [MG132] (Cbz-Leu-Leu-Leu-aldehyde)
[2]; Myh9-knockdown and control keratinocytes, DNA damage, MG132 3 μM
  p53 protein levels in presence of proteasome inhibitor: rescues Myh9 phenotype; also recorded: comparably induced in both Myh9-knockdown and control keratinocytes

## CCC(=C/[C@H](C)C/C=C/C(C)=C/[C@@H](C)C(=O)[C@@H](C)[C@H](O)[C@@H](C)C/C(C)=C/C(=O)O)/C=C/[C@@H]1OC(=O)C=C[C@@H]1C [leptomycinB]
[3]
  nuclear p53 accumulation/retention after DNA damage: restored to normal levels
[3]; listed as Leptomycin B
  nuclear p53 accumulation/retention after DNA damage: rescues the ability of Myh9-deficient cells to retain p53 in the nucleus; also recorded: restores p53 accumulation after DNA damage
[3]; DDR-induced myosin-IIa-deficient keratinocytes
  transactivation of p53 target genes such as CDKN2 (p21): restored to normal levels
